Read-outs that look alike come from different tables or passages of the source.
What was measured:
[1] = molecular target: T1, MBL containing crude enzyme preparation (Kpn LA-26 NDM-1) (Klebsiella pneumoniae, UniProt C7C422); assay: 1H NMR monitoring of meropenem hydrolysis by MBL crude enzyme preparation; type: biochemical; settings: meropenem 0.18 mM, absence of β-IDACYD, 6 h incubation
T1 construct: an MBL containing crude enzyme preparation (Kpn LA-26 NDM-1, 485 µL); endogenous in cells; host or cells: Klebsiella pneumoniae clinical strain LA-26 (crude enzyme preparation)
T1 sequence (C7C422 29-270 limits assumed): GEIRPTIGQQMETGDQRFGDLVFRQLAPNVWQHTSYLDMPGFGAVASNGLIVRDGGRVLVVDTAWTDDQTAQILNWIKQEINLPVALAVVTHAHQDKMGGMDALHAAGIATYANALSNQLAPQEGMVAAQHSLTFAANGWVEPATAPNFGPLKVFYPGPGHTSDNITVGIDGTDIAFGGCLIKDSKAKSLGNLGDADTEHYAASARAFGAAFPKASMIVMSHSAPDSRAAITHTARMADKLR

Klebsiella pneumoniae = assay: MIC of β-lactams alone or with 50 µM IDACYD against clinical isolates; type: cell-based; settings: Klebsiella pneumoniae, alone
Method: Further the in-vitro inhibitory activity of IDACYDs was tested against highly resistant pathogens. […] Table 2: Collection of clinical isolates used for in-vitro evaluation

[2] = system: NDM-1 producing K. pneumoniae strain LA26; assay: Murine sepsis model: single dose treatment scheme-2; type: in vivo, CD-1 mice; settings: meropenem monotherapy, single dose 10 mg/kg; within 48 h
Method: Example 9. […] Blood samples were collected at 0, 6 and 24 hours after injection of a single dose of antibiotic (4 infected animals for each timepoint), were serially diluted in normal saline (10^-1 to 10^-9) and plated on MH agar plates which were incubated for 16 hours at 37°C for determination of viable organisms. […] The resulting 3.0log10 reduction in the blood bacterial load in the presence of 120 mg/kg of the inhibitor β-IDACYD compared to the antibiotic itself confirmed the high repotentiation abilities of the inhibitor to carbapenems even for suboptimal antibiotic doses. […] Treatment was given in a form of a single shot 2h after infection and blood was drawn 0h, 6h and 24h post treatment initiation. All groups were of n=10. Error bars are indicative of SEM (n=2 replicates).

[3] = system: NDM-1 producing K. pneumoniae clinical strain LA 26; assay: Murine sepsis model: single dose treatment scheme-1; type: in vivo, CD-1 mice; settings: meropenem monotherapy, single dose 30 mg/kg; 70 hours post infection
Method: Example 8. In-vivo murine sepsis model: Single dose treatment scheme-1: Neutropenic 7-8 weeks old CD-1 female mice weighing 29 to 32 grams were infected interperitoneally with a lethal dose (10^7 CFU) of the NDM-1 producing K. pneumoniae clinical strain LA 26 as described previously. […] The meropenem/ β-IDACYD combination was administrated in all dosing schemes simultaneously. Blood samples were taken 0, 6, 24 hours and 3 days after injection of a single dose of antibiotic (five infected animals for each timepoint) and were serially diluted in normal saline (10^-1 to 10^-9) and plated on MH agar plates which were incubated for 16 hours at 37 °C for determination of viable organisms. All mice were euthanised 3 days post infection and spleen and liver were harvested. Organs were placed into 1 mL of normal saline on ice and then homogenised. Organ homogenates were then serially diluted in normal saline (10^-1 to 10^-9) and plated on MH agar plates for CFU enumeration. In the absence of therapy 30% of mice remained alive 70 hours post infection. […] The bacterial burden in the blood 70 hours post treatment was relieved by 4.8log10 in the presence of 120 mg/kg of β-IDACYD compared to that of the antibiotic monotherapy. […] In Fig. 7 is shown the bacterial load (CFU/mL) and survival percentage of CD-1 mice infected with a lethal dose (10^7 CFU) of NDM-1 producing K. pneumoniae strain LA26. […] Treatment was given in a form of a single shot 2h after infection and blood was drawn 0h, 6h, 24h and 70h post treatment initiation. All groups were of n=10. Error bars are indicative of SEM (n=2 replicates).

[4] = system: NDM producing K. pneumoniae clinical strain LA26; assay: Murine sepsis model: 2-hour intervals treatment scheme; type: in vivo, CD-1 mice; settings: meropenem monotherapy 30 mg/kg every 2 h for 24 h, intraperitoneal; 140 hours
Method: Example 7. […] The animals were rendered neutropenic (<100 neutrophils/mm^3) by intraperitoneal injection of 150 and 100 mg/kg of cyclophosphamide at day -4 and day -1, respectively, before infection. […] The meropenem/ β-IDACYD combination was administrated in all dosing schemes simultaneously. […] Blood samples were taken 0, 6, 24 hours and 7 days after injection of a single dose of antibiotic (five infected animals for each timepoint) were serially diluted in normal saline (10^-1 to 10^-9) and plated on MH agar plates which were incubated for 16 hours at 37°C for determination of viable organisms. All mice that were alive were euthanised 7 days post infection and spleen and liver were harvested. The organs were placed into 1 mL of normal saline on ice and then homogenised. The organ homogenates were then serially diluted in normal saline (10^-1 to 10^-9) and plated on MH agar for CFU enumeration. Without therapy 90% of mice succumbed to the infection within 24 hours. […] Finally, the bacterial load in the spleen was relieved by 4.2 log10 compared to that of the antibiotic itself. In Fig.6 is shown the bacterial load (CFU/mL) (A) and survival percentage (B) of CD-1 mice infected with a lethal dose (10^7 CFU) of NDM-1 producing K. pneumoniae strain LA26. […] Treatment (initiated at 2 hours post infection) was given every 2h for a 24h period and blood was drawn 0 h, 6 h, 24 h and 140 h post treatment initiation. All groups were of n=10. Spleen and liver (C) from n=5 mice were also removed at 140 h post-treatment initiation the bacterial load [log (CFU/organ)] was determined. Error bars are indicative of SEM (n=2 replicates).

`C[C@@H](O)[C@H]1C(=O)N2C(C(=O)O)=C(S[C@@H]3CN[C@H](C(=O)N(C)C)C3)[C@H](C)[C@H]12` [Meropenem, reference compound] gave a drug hydrolyzed [1] of roughly 100%, an MIC (Klebsiella pneumoniae; read-out: Meropenem MIC, Kpn ESDY 5742 (IMP-1)) of 32 mg/L and an MIC (Klebsiella pneumoniae; read-out: Meropenem MIC, Kpn LA 26 (NDM-1)) of 32 mg/L. For the same compound, the MIC (Klebsiella pneumoniae; read-out: Meropenem MIC, Kpn LA 34 (VIM-1 CMY)) was 256 mg/L, the MIC (Klebsiella pneumoniae; read-out: Meropenem MIC, Kpn LA 82/16 (VIM-1)) was 64 mg/L and the MIC (Klebsiella pneumoniae; read-out: Meropenem MIC, Kpn LA 109/16 (VIM-1)) was 256 mg/L. For the same compound, the MIC (Klebsiella pneumoniae; read-out: Meropenem MIC, Kpn LA419/16 (NDM-1)) was 16 mg/L, the MIC (Klebsiella pneumoniae; read-out: Meropenem MIC, isolate ALX-47 (OXA-48,CTX-M)) was 8 mg/L and the MIC (Klebsiella pneumoniae; read-out: Meropenem MIC, isolate ESDY-1780 (VIM, KPC)) was 64 mg/L. For the same compound, the MIC (Klebsiella pneumoniae; read-out: Meropenem MIC, isolate ESDY-5742 (IMP)) was 16 mg/L, the MIC (Klebsiella pneumoniae; read-out: Meropenem MIC, isolate EY-20S (CMY, SHV)) was 8 mg/L and the MIC (Klebsiella pneumoniae; read-out: Meropenem MIC, isolate IT-17829 (CTXM, SHV)) was 32 mg/L. It also gave an MIC (Klebsiella pneumoniae; read-out: Meropenem MIC, isolate L078/11 (KPC)) of 64 mg/L, an MIC (Klebsiella pneumoniae; read-out: Meropenem MIC, isolate LA-26 (NDM)) of 32 mg/L and an MIC (Klebsiella pneumoniae; read-out: Meropenem MIC, isolate LA-27 (NDM, CTXM)) of 8 mg/L. For the same compound, the MIC (Klebsiella pneumoniae; read-out: Meropenem MIC, isolate LA-28 (NDM, CTXM)) was 64 mg/L, the MIC (Klebsiella pneumoniae; read-out: Meropenem MIC, isolate LA-34 (VIM, CMY), first entry of Table 3) was 256 mg/L and the MIC (Klebsiella pneumoniae; read-out: Meropenem MIC, isolate LA-34 (VIM, CMY), second entry of Table 3) was 64 mg/L. For the same compound, the MIC (Klebsiella pneumoniae; read-out: Meropenem MIC, isolate LA-82/16 (VIM, SHV)) was 64 mg/L, the MIC (Klebsiella pneumoniae; read-out: Meropenem MIC, isolate LA-419/16 (NDM,CTXM)) was 16 mg/L and the MIC (Klebsiella pneumoniae; read-out: Meropenem MIC, isolate LAR-26I/15 (NDM, VIM, CTXM)) was 64 mg/L. It also gave an MIC (Klebsiella pneumoniae; read-out: Meropenem MIC, isolate LAR-38I/15 (VIM, NDM, CTXM)) of 16 mg/L, an MIC (Klebsiella pneumoniae; read-out: Meropenem MIC, isolate LAR-40II/15 (KPC)) of 64 mg/L and an MIC (Klebsiella pneumoniae; read-out: Meropenem MIC, isolate LAR-2873 (VIM-12)) of 8 mg/L. For the same compound, the MIC (Klebsiella pneumoniae; read-out: Meropenem MIC, isolate SEC-2 (VIM)) was 64 mg/L, the MIC (Klebsiella pneumoniae; read-out: Meropenem MIC, isolate SEC-4 (VIM)) was 32 mg/L and the MIC (Klebsiella pneumoniae; read-out: Meropenem MIC, isolate TZAN-59 (β-lactamase: None)) was 0.5 mg/L. For the same compound, the MIC (Klebsiella pneumoniae; read-out: Meropenem MIC, isolate UoA 12/227 (VIM)) was 64 mg/L, the MIC (Klebsiella pneumoniae; read-out: Meropenem MIC, isolate UoA 1995 (VIM)) was 64 mg/L and the protection from death [2] was “unable to protect any mice from death”. For the same compound, the survival [3] was 30% and the “mice protected (survival)” value [4] was 80%.
